This experiment addresses Dual specificity mitogen-activated protein kinase kinase 1 (Homo sapiens, UniProt Q02750). The experiment is described as follows: LANCE Ultra Assay: The LANCE Ultra assay kit was purchased from PerkinElmer. The ULight-MBP peptide, Europium labeled Antibody and LANCE Detection buffer were purchased from PerkinElmer. The APT and dimethylsulfoxide were purchased from Sigma-Aldrich. The 5× Kinase buffer were purchased from Invitrogen. […] A Mek1 kinase assay (LANCE, PerkinElmer) was developed for supporting compound profiling and lead optimization. […] Then the phosphorylated Erk1 was able to phosphorylate ULight-MBP peptide (PerkinElmer). The phosphorylated peptide was detected by Europium-anti-phospho-MBP (PerkinElmer). […] After quenching the reaction with […], 2 nM Europium-anti-phospho-MBP was added to the reaction mixture and incubated for 60 min, followed by a detection using EnVision Multilabel Plate Reader (PerkinElmer). (TR-FRET usually uses a lanthanide donor and a delayed reading to cut background.)

Each structure is given as a SMILES string. pIC50: −log10 of the molar value. Where only a bound is given, the exact number is not on record here.

Dual specificity mitogen-activated protein kinase kinase 1, sequence (Q02750 whole entry): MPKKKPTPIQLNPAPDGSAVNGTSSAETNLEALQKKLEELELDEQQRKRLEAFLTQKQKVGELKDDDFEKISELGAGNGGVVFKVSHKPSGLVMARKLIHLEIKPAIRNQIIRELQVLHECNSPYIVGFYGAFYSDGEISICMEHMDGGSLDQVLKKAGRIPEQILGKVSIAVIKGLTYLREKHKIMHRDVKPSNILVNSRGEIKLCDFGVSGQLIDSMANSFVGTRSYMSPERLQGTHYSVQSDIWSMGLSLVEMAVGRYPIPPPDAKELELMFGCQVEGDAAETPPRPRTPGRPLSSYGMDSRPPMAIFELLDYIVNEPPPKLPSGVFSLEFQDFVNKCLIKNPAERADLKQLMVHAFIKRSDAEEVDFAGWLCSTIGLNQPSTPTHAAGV

As usually defined, the pIC50 is the IC50 on a negative log10 scale, so that one unit is a factor of ten. `Cn1c(Nc2ccc(I)cc2F)c(C(=O)NOCCO)c2c(c1=O)CC(C)(C)C2`: the pIC50 is over 6.30.

The record behind these values is ChEMBL document CHEMBL5726111, “Substituted pyridinone compounds as MEK inhibitors” (2017).
